{
  "source": "patent US12577238B2",
  "about": "“Compositions and methods for modulating inflammatory and degenerative disorder” (University of Southern California, priority 2018, dated 2026)",
  "key": {"[1]": {"target": "T1, OSMR and gp130 (Homo sapiens, UniProt P40189)", "T1 construct": "FLAG; expressed in transfected cells; host or cells: adult human chondrocytes", "T1 sequence (P40189 23-918)": "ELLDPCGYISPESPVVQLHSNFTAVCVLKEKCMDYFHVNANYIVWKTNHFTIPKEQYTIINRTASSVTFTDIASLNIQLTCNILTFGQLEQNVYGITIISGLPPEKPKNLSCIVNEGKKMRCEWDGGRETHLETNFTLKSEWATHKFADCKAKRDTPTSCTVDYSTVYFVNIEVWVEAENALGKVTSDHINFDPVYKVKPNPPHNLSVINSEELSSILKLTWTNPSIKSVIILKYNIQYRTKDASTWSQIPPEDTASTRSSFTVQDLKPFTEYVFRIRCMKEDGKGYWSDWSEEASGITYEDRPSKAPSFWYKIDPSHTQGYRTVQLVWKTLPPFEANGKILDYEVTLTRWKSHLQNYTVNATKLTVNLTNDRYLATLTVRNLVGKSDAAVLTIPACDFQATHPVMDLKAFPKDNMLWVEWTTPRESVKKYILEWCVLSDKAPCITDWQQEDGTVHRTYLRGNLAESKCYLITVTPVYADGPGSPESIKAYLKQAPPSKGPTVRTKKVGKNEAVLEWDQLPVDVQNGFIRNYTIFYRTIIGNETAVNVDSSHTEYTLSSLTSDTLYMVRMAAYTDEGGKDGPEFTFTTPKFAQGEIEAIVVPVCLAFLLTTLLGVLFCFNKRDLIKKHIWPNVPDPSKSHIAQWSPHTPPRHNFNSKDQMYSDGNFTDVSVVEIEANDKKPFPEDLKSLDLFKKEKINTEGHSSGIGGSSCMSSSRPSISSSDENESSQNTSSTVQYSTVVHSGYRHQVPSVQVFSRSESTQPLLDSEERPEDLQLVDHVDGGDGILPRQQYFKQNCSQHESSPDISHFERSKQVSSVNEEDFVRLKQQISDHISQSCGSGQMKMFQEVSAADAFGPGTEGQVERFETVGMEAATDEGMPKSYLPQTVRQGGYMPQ", "assay": "Receptor competition, gp130-Flag pull-down, OSMR", "assay_type": "cell-based", "conditions": "in the presence of OSM; IP-FLAG, WB-OSMR", "protocol": "Adult human chondrocytes transfected with gp130-Flag were incubated with various concentrations of RCGD 423 in the presence of IL-6 or OSM; levels of immoprecipitated IL-6R or OSMR were used to calculate the dissociation constant (Kd).\nAdult human chondrocytes; IP-FLAG AB (transfected with gp130 FLAG plasmid), WB-OSMR.\nThis property would be of great interest due to the pro-inflammatory and pro-catabolic effects of these cytokines in the joint space. […] To assess whether RCGD 423 could directly compete for gp130 occupancy, human adult articular chondrocytes were transfected with tagged gp130 and then pulled down associated proteins±RCGD 423 and/or IL-6."}, "[2]": {"tested_on": "adult pig articular chondrocytes", "assay": "Proteins mediating pro-inflammatory signals with or without OSM", "assay_type": "cell-based", "text": "(§1) Firstly, RCGD 423 was a hit from a library; this made the depth of the discovery surrounding the technology less comprehensive. Additionally, the physical properties of RCGD 423 (solubility, potency, functional groups) could be improved. Significant gains in these areas could potentially result in a first-in-class injectable for the treatment of post-traumatic OA. Moreover, the potential risks associated with promoting MYC stabilization and proliferation in gp130^+ cells as well as large increases in active STAT3 protein was of concern. […] These compounds were then screened in adult pig articular chondrocytes and cartilage explants, seeking compounds that could inhibit the catabolic effects of OSM but not drive increases in MYC and pSTAT3 protein levels. […] Together, these preliminary data identify CX-011 (B8) as a highly anti-inflammatory, anti-catabolic alternative to RCGD 423, with increased “drug-like” properties and reduced potential molecular liabilities."}, "[3]": {"tested_on": "pig articular cartilage explants", "assay": "Matrix degradation assay, OSM-driven, pig articular cartilage explants", "assay_type": "cell-based", "protocol": "FIG. 22A-C show matrix degradation assays.\n72 hour exposure to the drug and OSM. […] Effect is concentration dependent and increases with increase in drug concentration.\nas §1"}, "[4]": {"target": "T2, gp130 (Homo sapiens, UniProt P40189)", "T2 construct": "endogenous in cells; host or cells: adult human articular chondrocytes (three donors)", "T2 sequence (P40189 23-918)": "T1 sequence (P40189 23-918)", "assay": "OSM-mediated activation of gp130 in adult human articular chondrocytes", "assay_type": "cell-based", "conditions": "three independent donors", "text": "423F is the positive control drug. Adult human articular chondrocytes from three independent donors were used to generate the results.\nAdult human articular chondrocytes from three independent donors were used to generate the results.\nAdult human articular chondrocytes from three independent donors were used."}, "[5]": {"target": "T3, gp130 (Rattus norvegicus, UniProt P40190)", "T3 construct": "from tissue; host or cells: rat knee joint in vivo (Sprague-Dawley wild-type in the CFA model)", "T3 sequence (P40190 23-918)": "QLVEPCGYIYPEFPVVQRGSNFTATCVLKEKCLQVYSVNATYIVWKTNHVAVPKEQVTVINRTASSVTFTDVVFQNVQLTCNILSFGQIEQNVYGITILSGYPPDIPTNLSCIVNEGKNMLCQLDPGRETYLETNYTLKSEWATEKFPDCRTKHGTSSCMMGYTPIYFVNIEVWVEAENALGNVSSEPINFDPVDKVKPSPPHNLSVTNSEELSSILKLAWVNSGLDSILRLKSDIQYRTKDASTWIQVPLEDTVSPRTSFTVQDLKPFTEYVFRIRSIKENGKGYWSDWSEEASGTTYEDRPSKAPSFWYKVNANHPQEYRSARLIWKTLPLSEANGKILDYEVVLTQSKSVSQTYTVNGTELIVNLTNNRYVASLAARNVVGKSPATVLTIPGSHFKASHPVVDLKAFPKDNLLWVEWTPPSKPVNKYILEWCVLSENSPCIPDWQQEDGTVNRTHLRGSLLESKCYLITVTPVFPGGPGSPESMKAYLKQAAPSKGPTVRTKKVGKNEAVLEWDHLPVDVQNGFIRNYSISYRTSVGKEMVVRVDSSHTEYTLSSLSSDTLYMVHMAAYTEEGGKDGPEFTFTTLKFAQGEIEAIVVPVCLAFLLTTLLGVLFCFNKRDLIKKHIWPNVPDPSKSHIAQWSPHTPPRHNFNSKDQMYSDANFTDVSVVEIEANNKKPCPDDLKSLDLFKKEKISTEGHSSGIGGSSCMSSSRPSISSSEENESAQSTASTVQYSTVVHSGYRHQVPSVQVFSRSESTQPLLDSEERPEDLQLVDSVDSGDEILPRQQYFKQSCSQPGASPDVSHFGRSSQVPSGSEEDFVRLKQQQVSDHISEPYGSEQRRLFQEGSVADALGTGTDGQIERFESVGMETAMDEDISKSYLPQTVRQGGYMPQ", "assay": "CFA-induced systemic inflammatory response in rats, intraarticular drug", "assay_type": "in vivo", "protocol": "Rat (Sprague-Dawley wild-type) were injected with Complete Freund's Adjuvant (CFA) to induce systemic inflammatory response. Drug (805) was injected intraarticularly; multiple doses (A and B, N=3)."}, "[6]": {"tested_on": "adult synovial cells", "assay": "OSM-mediated cytokine secretion by adult synovial cells", "assay_type": "cell-based", "conditions": "10 μM", "protocol": "Adult synovial cells from three independent donors were used. Molecule 805 was used at 10 μM."}, "[7]": {"assay": "Oral single dose, synovial inflammation in rat joints", "assay_type": "in vivo", "conditions": "oral administration of a single dose"}, "[8]": {"assay": "Medial meniscal tear surgery, intra-articular injection", "assay_type": "in vivo", "conditions": "following medial meniscal tear surgery"}, "[9]": {"assay": "Survival of NZM.2328 female mice (lupus nephritis-like syndrome)", "assay_type": "in vivo", "conditions": "intraperitoneally twice weekly, 10 mg/kg"}},
  "note": "Entries after “also recorded” stand apart in the source; their conditions may differ.",
  "data": [
    {"smiles": "Cc1ccc(-c2csc(NC(=O)c3ccccn3)n2)cc1", "note": "[B805]", "values": [
      {"measurement": "competition with OSMR for gp130 occupancy / OSMR-gp130 interaction", "setting": "[1]", "value": "disrupts the interaction between OSMR and gp130 in a concentration-dependent manner"},
      {"measurement": "increases in proteins mediating pro-inflammatory signals", "setting": "[2]; in the presence of OSM", "value": "strongly inhibits increases in these proteins in the presence of OSM"},
      {"measurement": "endogenous levels of proteins mediating pro-inflammatory signals", "setting": "[2]; without OSM", "value": "little effect"},
      {"measurement": "breakdown of collagen and aggrecan (aggrecan-neo, collagen-neo epitopes)", "setting": "[3]; driven by OSM", "value": "strongly prevent the breakdown of collagen and aggrecan; also recorded: prevents the breakdown of collagen and aggrecan"},
      {"measurement": "increase in catalytic enzymes / induction of proteolytic gene expression", "setting": "[3]; driven by OSM", "value": "prevents"},
      {"measurement": "breakdown of collagen and aggrecan (aggrecan-neo, collagen-neo epitopes)", "setting": "[3]; fresh pig cartilage explants, 72 hour exposure to drug and OSM", "value": "strongly prevents the breakdown of collagen and aggrecan"},
      {"measurement": "OSM-mediated activation of downstream effector JAK2", "setting": "[4]", "value": "strongly inhibits"},
      {"measurement": "OSM-mediated activation of gp130", "setting": "[4]", "value": "inhibit OSM-mediated activation of gp130; also recorded: strongly inhibits OSM-mediated activation of gp130"},
      {"measurement": "activation of gp130 in sick animals", "setting": "[5]", "value": "prolonged effect preventing activation gp130 in sick animals"},
      {"measurement": "inflammatory response in vivo", "setting": "[5]; multiple doses, N=3", "value": "inhibits inflammatory response in vivo in a dose-dependent manner"},
      {"measurement": "OSM-mediated secretion of IL-6", "setting": "[6]", "value": "strongly inhibits"},
      {"measurement": "OSM-mediated secretion of TNF-α", "setting": "[6]", "value": "strongly inhibits"},
      {"measurement": "synovial inflammation", "setting": "[7]", "value": "reduced synovial inflammation in rat joints"},
      {"measurement": "cartilage degeneration", "setting": "[8]", "value": "reduces cartilage degeneration"},
      {"measurement": "survival", "setting": "[9]", "value": "survive longer"}
    ]}
  ]
}
